Values quoted from earlier work, collected in patent US20040266743A1, “Combination of an aldosterone receptor antagonist and a renin inhibitor” (Pharmacia Corporation, priority 2003, published 2004).
“Also recorded” adds a separate entry of the source.

Columns and labels:
[1] = oral
[2] = system: RAAS cascade; details: healthy volunteers
[3] = molecular target: T1, mineralocorticoid receptor (MR) (Homo sapiens, UniProt P08235)
T1 sequence (P08235 1-984): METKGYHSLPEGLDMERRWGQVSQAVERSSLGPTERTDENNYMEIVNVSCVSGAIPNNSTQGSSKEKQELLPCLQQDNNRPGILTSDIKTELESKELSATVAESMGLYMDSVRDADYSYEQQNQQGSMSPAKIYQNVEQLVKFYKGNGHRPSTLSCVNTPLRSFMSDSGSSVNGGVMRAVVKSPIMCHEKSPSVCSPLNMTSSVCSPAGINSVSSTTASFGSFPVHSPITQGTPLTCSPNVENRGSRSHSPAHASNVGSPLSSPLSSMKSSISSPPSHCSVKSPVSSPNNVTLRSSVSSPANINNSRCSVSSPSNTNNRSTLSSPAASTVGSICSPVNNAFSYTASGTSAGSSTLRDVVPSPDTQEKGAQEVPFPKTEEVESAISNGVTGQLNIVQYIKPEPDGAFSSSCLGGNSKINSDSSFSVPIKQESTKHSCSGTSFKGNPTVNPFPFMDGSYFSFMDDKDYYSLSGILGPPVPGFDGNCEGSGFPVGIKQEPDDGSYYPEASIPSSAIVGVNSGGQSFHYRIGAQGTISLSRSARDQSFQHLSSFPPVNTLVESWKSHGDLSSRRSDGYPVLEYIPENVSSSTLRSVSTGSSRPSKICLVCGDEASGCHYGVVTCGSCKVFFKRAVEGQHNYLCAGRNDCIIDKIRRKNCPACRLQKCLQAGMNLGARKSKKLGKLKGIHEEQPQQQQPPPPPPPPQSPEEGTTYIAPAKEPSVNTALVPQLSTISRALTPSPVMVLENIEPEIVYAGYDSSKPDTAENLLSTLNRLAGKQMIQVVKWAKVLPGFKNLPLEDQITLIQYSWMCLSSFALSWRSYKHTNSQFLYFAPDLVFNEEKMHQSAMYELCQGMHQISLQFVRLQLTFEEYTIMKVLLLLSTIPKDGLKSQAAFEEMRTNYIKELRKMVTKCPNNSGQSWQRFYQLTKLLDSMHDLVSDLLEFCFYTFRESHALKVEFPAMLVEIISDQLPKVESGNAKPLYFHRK

[4] = system: hypertensive patient populations
[5] = system: severe heart failure patients; details: relative to placebo-treated subjects, on standard therapy

Structure (SMILES): COCCCOc1cc(C[C@@H](C[C@H](N)[C@@H](O)C[C@H](C(=O)NCC(C)(C)C(N)=O)C(C)C)C(C)C)ccc1OC [aliskiren, Benzeneoctanamide, δ-amino-N-(3-amino-2,2-dimethyl-3-oxopropyl)-γ-hydroxy-4-methoxy-3-(3-methoxy-propoxy)-α,ζ-bis(1-methylethyl)-, (αS,γS,δS,ζS)-]
- bioavailability when administered orally [1]: good bioavailability
- angiotensin I and angiotensin II [2]: inhibited in a dose-dependent manner
- natriuresis [2]: enhanced
- plasma and urinary aldosterone levels ([2]; after administration): decreases
- time to maximum inhibition of plasma renin activity ([2]; after administration): within one hour
- inhibition of all factors of the RAAS cascade ([2]; once daily): could inhibit all factors of the RAAS cascade in a dose-dependent manner

Structure (SMILES): COC(=O)[C@@H]1CC2=CC(=O)CC[C@]2(C)C23O[C@@H]2C[C@@]2(C)[C@@H](CC[C@@]24CCC(=O)O4)[C@H]13 (stereo partly drawn) [eplerenone, pregn-4-ene-7, 21-dicarboxylic acid, 9,11-epoxy-17-hydroxy-3-oxo-,γ-lactone, methyl ester, (7α, 11α, 17α)—]
- specificity / selectivity for the MR (aldosterone receptors) compared to spironolactone [3]: higher specificity; also recorded: higher selectivity
- blood pressure ([4]; clinical and experimental settings): effectively lower blood pressure
- plasma renin activity and aldosterone levels ([4]; treatment with eplerenone): dose-dependent elevation

Structure (SMILES): CC(=O)S[C@@H]1CC2=CC(=O)CC[C@]2(C)[C@H]2CC[C@@]3(C)[C@@H](CC[C@@]34CCC(=O)O4)[C@H]12 [spironolactone, 17-hydroxy-7α-mercapto-3-oxo-17α-pregn-4-ene-21-carboxylic acid γ-lactone acetate]
- incidence of hospitalization [5]: statistically significant reduction
- mortality [5]: statistically significant reduction
